The values that follow come from the Kinase Knowledgebase extract (Sharma et al. 2016).

SMILES strings stand for the structures. Some results are limits rather than exact numbers.

The target of experiment [1] is MAPK14 (human) (UniProt Q16539). Briefly: Inhibition of Doubly Phosphorylated MAPK14 Kinase Activity (Biochemical Assay).
Experiment [2] addresses PIK3CB;PIK3CG;PIK3CD;PIK3CA (human) (UniProt P48736). The experiment can be described thus: Inhibition of PIK3CA/PIK3CB/PIK3CD/PIK3CG Kinase Activity.
The target in experiment [3] is EGFR (Human), P00533 [T790M/L858R].
Sequence of EGFR (Human), P00533 [T790M/L858R] (P00533 whole entry T790M/L858R, looked up): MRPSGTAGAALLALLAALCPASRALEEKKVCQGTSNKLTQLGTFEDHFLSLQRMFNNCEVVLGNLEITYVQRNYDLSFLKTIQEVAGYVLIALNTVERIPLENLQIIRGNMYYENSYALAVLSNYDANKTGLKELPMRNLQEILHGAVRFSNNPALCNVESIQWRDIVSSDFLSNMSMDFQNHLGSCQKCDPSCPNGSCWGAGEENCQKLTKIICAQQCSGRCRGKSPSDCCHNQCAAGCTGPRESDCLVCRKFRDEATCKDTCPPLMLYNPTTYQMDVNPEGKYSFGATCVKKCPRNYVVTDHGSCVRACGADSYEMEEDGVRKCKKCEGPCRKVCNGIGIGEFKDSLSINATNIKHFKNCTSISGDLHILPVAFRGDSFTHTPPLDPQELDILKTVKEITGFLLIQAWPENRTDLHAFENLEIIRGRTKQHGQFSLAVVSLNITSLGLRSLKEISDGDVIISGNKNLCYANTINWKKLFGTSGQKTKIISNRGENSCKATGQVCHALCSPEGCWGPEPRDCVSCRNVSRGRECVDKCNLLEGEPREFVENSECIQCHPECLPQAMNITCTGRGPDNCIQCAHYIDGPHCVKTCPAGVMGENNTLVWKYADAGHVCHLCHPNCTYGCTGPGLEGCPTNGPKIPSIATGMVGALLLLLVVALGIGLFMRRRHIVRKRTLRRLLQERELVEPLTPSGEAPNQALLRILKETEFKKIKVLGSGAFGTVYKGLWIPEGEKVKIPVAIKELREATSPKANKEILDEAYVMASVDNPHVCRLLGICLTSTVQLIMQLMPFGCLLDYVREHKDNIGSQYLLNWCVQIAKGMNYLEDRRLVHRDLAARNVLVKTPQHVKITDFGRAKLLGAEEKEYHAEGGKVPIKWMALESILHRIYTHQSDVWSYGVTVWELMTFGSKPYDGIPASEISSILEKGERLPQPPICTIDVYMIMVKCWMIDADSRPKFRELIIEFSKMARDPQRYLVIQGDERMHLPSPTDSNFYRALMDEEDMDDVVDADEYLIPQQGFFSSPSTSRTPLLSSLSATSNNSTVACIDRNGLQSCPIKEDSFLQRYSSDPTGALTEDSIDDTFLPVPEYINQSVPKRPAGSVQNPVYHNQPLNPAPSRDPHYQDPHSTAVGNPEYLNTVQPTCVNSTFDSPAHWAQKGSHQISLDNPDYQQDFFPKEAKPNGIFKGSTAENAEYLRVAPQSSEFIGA
A further experiment deals with EGFR (UniProt P00533).
The target of experiment [4] is EGFR (human) (UniProt P00533).
Sequence of EGFR (human) (P00533 whole entry, looked up): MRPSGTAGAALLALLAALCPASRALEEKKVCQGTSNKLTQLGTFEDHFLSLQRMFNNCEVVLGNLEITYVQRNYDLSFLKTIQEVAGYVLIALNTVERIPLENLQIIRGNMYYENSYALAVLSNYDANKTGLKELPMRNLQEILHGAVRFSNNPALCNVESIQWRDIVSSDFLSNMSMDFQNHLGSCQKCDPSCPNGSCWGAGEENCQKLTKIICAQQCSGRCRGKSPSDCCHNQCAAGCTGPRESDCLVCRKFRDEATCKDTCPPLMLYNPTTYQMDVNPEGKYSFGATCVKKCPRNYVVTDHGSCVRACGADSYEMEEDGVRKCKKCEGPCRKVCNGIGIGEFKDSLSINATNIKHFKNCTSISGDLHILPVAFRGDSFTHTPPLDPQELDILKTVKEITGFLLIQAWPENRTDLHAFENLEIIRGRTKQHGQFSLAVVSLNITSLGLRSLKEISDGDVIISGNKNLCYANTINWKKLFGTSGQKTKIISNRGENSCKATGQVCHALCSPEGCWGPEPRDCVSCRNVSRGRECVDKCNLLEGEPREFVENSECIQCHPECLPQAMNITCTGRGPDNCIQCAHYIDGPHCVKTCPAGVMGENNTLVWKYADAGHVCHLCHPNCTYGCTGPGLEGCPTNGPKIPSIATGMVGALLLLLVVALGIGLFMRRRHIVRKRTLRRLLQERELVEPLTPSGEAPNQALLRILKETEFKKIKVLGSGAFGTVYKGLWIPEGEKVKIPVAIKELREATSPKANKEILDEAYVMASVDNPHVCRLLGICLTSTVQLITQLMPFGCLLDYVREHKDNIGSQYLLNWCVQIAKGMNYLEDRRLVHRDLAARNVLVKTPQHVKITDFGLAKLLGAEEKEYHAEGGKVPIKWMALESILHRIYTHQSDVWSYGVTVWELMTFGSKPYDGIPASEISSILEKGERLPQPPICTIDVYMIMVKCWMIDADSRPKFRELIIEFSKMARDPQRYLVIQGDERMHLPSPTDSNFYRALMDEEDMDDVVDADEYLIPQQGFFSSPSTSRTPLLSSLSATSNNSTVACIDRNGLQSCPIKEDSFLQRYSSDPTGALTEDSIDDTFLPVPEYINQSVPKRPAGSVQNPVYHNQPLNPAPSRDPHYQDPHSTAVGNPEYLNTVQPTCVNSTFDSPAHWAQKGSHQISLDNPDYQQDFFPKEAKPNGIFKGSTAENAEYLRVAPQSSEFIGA
The next experiment concerns the target MAPK14 (murine). Briefly: Inhibition of MAPK14 Kinase Assay.
Experiment [5] addresses MAPK14 (human) (UniProt Q16539). The experiment can be described thus: Inhibition of LPS-stimulated TNF-alpha Production in Human Monocytic Cells. Conditions: thp.1 monocytic.
Another experiment deals with PIK3CB (Human) (UniProt P42338). Briefly: Assessment of PIK3CB Kinase Activity.
Sequence of PIK3CB (Human) (P42338 whole entry, looked up): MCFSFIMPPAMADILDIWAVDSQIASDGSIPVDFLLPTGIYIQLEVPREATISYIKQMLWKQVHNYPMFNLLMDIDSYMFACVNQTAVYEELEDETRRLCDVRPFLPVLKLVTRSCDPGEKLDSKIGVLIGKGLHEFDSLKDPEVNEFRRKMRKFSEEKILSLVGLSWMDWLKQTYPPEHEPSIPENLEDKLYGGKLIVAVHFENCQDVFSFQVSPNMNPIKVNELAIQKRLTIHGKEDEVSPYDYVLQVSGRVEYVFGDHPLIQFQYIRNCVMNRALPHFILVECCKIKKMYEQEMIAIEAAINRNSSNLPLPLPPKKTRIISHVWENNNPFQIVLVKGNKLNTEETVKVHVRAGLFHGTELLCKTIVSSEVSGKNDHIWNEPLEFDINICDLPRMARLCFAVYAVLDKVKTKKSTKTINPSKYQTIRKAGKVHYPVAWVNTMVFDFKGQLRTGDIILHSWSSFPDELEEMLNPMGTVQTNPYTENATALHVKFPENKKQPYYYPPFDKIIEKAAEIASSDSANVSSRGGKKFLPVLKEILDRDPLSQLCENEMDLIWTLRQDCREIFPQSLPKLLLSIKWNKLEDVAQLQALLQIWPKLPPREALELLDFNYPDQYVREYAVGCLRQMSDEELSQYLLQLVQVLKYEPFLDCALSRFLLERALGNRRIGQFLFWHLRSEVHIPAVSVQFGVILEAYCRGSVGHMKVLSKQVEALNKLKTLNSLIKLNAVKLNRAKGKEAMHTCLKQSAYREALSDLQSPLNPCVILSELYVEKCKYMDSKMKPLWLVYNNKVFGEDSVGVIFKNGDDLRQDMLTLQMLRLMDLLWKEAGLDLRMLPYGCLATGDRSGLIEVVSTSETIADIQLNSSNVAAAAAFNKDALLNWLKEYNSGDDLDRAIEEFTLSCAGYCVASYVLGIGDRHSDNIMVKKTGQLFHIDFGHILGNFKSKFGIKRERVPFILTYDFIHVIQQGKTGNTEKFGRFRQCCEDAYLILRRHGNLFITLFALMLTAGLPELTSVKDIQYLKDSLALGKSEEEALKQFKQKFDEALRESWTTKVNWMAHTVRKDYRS
Experiment [6] deals with MAPK14 (human) (UniProt Q16539). The experiment can be described thus: Inhibition of LPS Induced TNF-alpha Production in THP-1 Cells. The settings on record: thp1.
Experiment [7] has as its target EGFR (human) (UniProt P00533). The settings on record: hn5.
The target in experiment [8] is PIK3CA (human) (UniProt P42336). The experiment can be described thus: Assessment of PIK3CA Kinase Activity.
Sequence of PIK3CA (human) (P42336 whole entry, looked up): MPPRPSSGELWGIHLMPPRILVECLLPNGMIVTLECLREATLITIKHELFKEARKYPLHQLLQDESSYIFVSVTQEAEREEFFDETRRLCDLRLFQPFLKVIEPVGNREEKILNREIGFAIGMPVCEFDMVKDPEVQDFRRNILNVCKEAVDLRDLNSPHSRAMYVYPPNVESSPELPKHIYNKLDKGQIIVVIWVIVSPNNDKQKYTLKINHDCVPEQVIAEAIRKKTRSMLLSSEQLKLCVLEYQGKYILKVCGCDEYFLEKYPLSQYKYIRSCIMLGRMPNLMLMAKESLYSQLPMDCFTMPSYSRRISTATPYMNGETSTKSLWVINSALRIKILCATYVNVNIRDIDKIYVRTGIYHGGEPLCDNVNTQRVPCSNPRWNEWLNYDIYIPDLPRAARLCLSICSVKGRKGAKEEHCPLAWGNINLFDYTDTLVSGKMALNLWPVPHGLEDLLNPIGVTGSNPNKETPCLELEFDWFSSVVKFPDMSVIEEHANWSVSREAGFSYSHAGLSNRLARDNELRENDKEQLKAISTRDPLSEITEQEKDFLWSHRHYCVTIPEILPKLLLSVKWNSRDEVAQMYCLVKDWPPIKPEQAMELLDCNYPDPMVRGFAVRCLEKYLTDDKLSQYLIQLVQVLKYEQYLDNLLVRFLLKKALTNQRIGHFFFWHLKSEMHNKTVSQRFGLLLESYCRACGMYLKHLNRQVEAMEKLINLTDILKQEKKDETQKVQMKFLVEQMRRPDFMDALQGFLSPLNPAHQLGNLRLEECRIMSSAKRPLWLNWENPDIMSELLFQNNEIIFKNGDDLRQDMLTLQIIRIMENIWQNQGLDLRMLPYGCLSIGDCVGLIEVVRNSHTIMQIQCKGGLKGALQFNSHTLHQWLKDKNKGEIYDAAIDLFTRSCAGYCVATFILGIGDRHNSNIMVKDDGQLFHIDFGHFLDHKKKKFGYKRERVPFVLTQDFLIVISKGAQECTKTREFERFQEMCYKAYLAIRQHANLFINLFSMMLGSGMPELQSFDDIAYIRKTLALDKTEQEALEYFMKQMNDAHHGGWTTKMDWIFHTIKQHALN
The next experiment addresses PIK3CD (Human) (UniProt O00329). The experiment can be described thus: Assessment of PIK3CD Kinase Activity.
Experiment [9] has as its target EGFR (human) (UniProt P00533). This is another data set of the same source.
Experiment [10] deals with PIK3CA (human) (UniProt P42336). Briefly: Inhibition of PIK3CA Kinase Activity.
Experiment [11] deals with PIK3CG (human) (UniProt P48736). The experiment can be described thus: Assessment of PIK3CG Kinase Activity.
Experiment [12] concerns the target EGFR (human) (UniProt P00533). Conditions: a431.
Experiment [13] concerns the target EGFR (human) (UniProt P00533). The source holds these as a separate data set.
The target in experiment [14] is MAPK14 (human) (UniProt Q16539). Briefly: Inhibition of MAPK14 Kinase Activity.
In experiment [15] the target is PIK3CG (human) (UniProt P48736). Briefly: Enzyme Assay.

Sequence of MAPK14 (human) (Q16539 whole entry, looked up): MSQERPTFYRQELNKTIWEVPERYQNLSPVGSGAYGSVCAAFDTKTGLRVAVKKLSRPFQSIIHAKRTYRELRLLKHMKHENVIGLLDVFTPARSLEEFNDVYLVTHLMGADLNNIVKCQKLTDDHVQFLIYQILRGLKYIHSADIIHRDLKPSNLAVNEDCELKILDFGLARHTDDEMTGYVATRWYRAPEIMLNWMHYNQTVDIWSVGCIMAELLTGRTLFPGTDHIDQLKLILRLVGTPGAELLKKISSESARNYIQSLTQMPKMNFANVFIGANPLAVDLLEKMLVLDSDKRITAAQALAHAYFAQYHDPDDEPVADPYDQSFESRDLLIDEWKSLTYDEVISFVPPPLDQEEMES

For orientation: IC50 means the concentration needed to halve the response being measured. Lower therefore signals higher potency. In the case of `NC(=O)Cc1cccc(-n2nc(-c3cccc(F)c3)cc2NC(=O)Nc2cccc(Cl)c2Cl)c1`, the IC50 against MAPK14 (human) [1] amounted to 0.021 µM.
Compound `COc1c(Cl)ncnc1NCc1cc2cccc(Cl)c2nc1-c1ccccc1` registered a concentration for half-maximal inhibition (IC50) in experiment [2] of 0.724 µM.
As to `C=CC(=O)N[C@@H]1CCCC[C@H](Nc2nc(Nc3cnn(C)c3)ncc2Cl)C1`, the IC50 in experiment [3] was in the range of 0.01 to 0.1 µM.
With `Cc1cn2ncnc(Nc3ccc4c(cnn4Cc4cccc(F)c4)c3)c2c1CN1CCCNCC1`, the concentration for half-maximal inhibition (IC50) against EGFR was 0.13 µM.
`C=CC(=O)Nc1cccc(Nc2nc(Nc3cn(C)nc3C)ncc2Cl)n1`: the IC50 in experiment [3] was 0.01 to 0.1 µM.
Same read-out and setting: the same measure for `C=CC(=O)N[C@H]1CCC[C@@H](Nc2nc(Nc3cnn(C)c3)ncc2Cl)C1`: 0.01 to 0.1 µM.
In turn, `C=C=CCCCOc1cc2c(Nc3cccc(Cl)c3)ncnc2cc1OC` returned an IC50 against EGFR (human) [4] of 0.0285 µM.
The compound `COc1ccc(C(=O)N2CCC(Cc3ccccc3NC(=O)Nc3cc(C(C)(C)C)nn3-c3ccc(C)cc3)CC2)c(OC)c1` gave an IC50 against MAPK14 (murine) of 0.5 µM.
On to `CC[C@H](C)Nc1nccc(-c2nn3c(c2-c2ccc(F)cc2)OCC3)n1`, for which the IC50 against MAPK14 (human) [5] is 0.08 µM.
In turn, `CC(Nc1ccc(F)cc1)c1cc(C(=O)N(C)C)cc2c(=O)cc(N3CCO[C@@H](C)C3)oc12` (stereo partly specified) returned an IC50 on PIK3CB (Human) of 0.064 µM.
In turn, `NC(=O)Cc1cccc(-n2nc(-c3cccc(Cl)c3)cc2NC(=O)Nc2cccc(Cl)c2Cl)c1` registered an IC50 against MAPK14 (human) [1] of 0.058 µM.
Compound `C=C=CCCCCOc1cc2c(Nc3ccc(F)c(Cl)c3)ncnc2cc1OC` registered an IC50 at EGFR (human) [4] of 0.0655 µM.
Regarding `COC(=O)c1ccc(C)c(Nc2nc(N[C@H]3CCNC3)nc(N(C)CC(C)(C)C)n2)c1`, on MAPK14 (human) [6], the IC50 was greater than 0.25 µM.
Take `CS(=O)(=O)CCNCc1nc(-c2ccc3ncnc(Nc4ccc5c(cnn5Cc5ccccc5)c4)c3c2)cs1`: the half-maximal inhibitory concentration (IC50) against EGFR (human) [7] was determined as 0.11 µM.
`CN1CC2CN(c3cnc4ncc(-c5ccc6oc(N)nc6c5)cc4n3)CC2C1` (stereo unspecified): the half-maximal inhibitory concentration (IC50) on PIK3CB (Human) was 0.1 to 1 µM; against PIK3CA (human) [8] it was less than 0.1 µM; against PIK3CD (Human), 0.1 to 1 µM.
Take `COc1cc2ncnc(Nc3ccc(F)c(Cl)c3)c2cc1O[C@H]1CCOC1`: the concentration for half-maximal inhibition (IC50) at EGFR (human) [9] was 0.00013 µM.
For `Cc1ccc(C(N)=O)cc1Nc1nc(NCCc2ccc(F)cc2)nc(N[C@H]2CCNC2)n1`, the IC50 on MAPK14 (human) [6] is greater than 5 µM.
For the compound `COc1ccc(C(=O)N2C3CCC2CC(Cc2ccccc2NC(=O)Nc2cc(C(C)(C)C)nn2-c2ccc(C)cc2)C3)c(OC)c1` (stereo unspecified), on MAPK14 (murine), the IC50 amounted to 6.75 µM.
Consider `COCCn1c(Cc2nc(N3CCOCC3)cc(=O)[nH]2)nc2ccccc21`, for which the half-maximal inhibitory concentration (IC50) at PIK3CA (human) [10] was greater than 10 µM; against PIK3CG (human) [11] it was greater than 10 µM; against PIK3CB (Human) it was 0.205 µM; against PIK3CD (Human) it was 0.27 µM.
For `CC(C)(C)C(=O)Nc1nc(Nc2cccc(F)c2)c2c(n1)[nH]c1cccc(Cl)c12`, the half-inhibitory concentration (IC50) on EGFR (human) [12] is greater than 250 µM.
On EGFR (human) [7], `CS(=O)(=O)CCNCc1nc(-c2ccc3ncnc(Nc4ccc(OCc5ccccc5)cc4)c3c2)cs1` came in with an IC50 of 1.6 µM.
Turning to `Cc1ccc(C(N)=O)cc1Nc1nc(NCC(C)C)nc(N[C@H]2CCNC2)n1`, on MAPK14 (human) [6], the IC50 was greater than 5 µM.
For the compound `Cc1ccnc(NS(=O)(=O)c2ccc(Nc3nc(C)c4c(=O)[nH]c(NCc5ccccc5)nc4n3)cc2)n1`, at EGFR (human) [13], the IC50 was found to be 6.6 µM.
On EGFR (human) [12], `CC(C)(C)C(=O)Nc1nc(Nc2ccc(Cl)cc2)c2c(n1)[nH]c1cccc(Cl)c12` registered an IC50 of 55 µM.
In turn, `CCOCn1nnc(-c2ccncc2)c1-c1ccc(F)cc1` showed a half-inhibitory concentration (IC50) against MAPK14 (human) [5] of 0.49 µM.
Regarding `Cc1ccc(C(N)=O)cc1Nc1nc(N[C@H]2CCNC2)nc(N(C)C2CCCCC2)n1`, the IC50 worked out at 1.3 µM at MAPK14 (human) [6] and 0.25 µM on MAPK14 (human) [14].
Take `Nc1ncc(-c2cnc3ccc(-c4ccc(C(=O)N5CCN(Cc6ccccn6)CC5)cc4)nn23)cc1C(F)(F)F`: the IC50 against PIK3CG (human) [15] turned out to be 1.27 µM; against PIK3CB (Human), 0.979 µM; at PIK3CA (human) [8], 0.016 µM; on PIK3CD (Human) it was 0.093 µM.
With `C=CC(=O)Nc1cccc(Nc2nc(NCc3cnn(C)c3)ncc2Cl)c1`, the IC50 in [3] is 0.01 to 0.1 µM.
Take `COc1ccc(C(=O)N2CCC(Cc3ccc(NC(=O)Nc4cc(C(C)(C)C)nn4-c4ccc(C)cc4)cc3)CC2)c(OC)c1`: at MAPK14 (murine), the half-inhibitory concentration (IC50) was 0.23 µM.
Compound `CS(=O)(=O)CCNCc1nc(-c2ccc3ncnc(Nc4ccc(F)c(Cl)c4)c3c2)cs1` yielded an IC50 at EGFR (human) [7] of 0.57 µM.
The compound `COc1cn2ncnc(Nc3ccc4c(cnn4Cc4cccc(F)c4)c3)c2c1CN1CCCNCC1` gave a 50% inhibitory concentration (IC50) against EGFR of 0.19 µM.
The compound `C[C@H](Nc1nccc(-c2nn3c(c2-c2ccc(F)cc2)OCC3)n1)c1ccccc1` displayed an IC50 on MAPK14 (human) [5] greater than 2 µM.
